Reference: patent US9179674B2, “Macrocyclic picolinamide compounds with fungicidal activity” (DOW AGROSCIENCES LLC, priority 2013, dated 2015)

What was measured:
[1] = tested on: Magnaporthe grisea; Anamorph: Pyricularia oryzae; assay: whole plant or invertebrate; assay type: in vivo; conditions: 24 h, read-out: Disease Control PYRIOR 1DP
[2] = tested on: Glomerella lagenarium; Anamorph: Colletotrichum lagenarium; assay: Cucumber Anthracnose fungicidal activity (COLLLA); assay type: in vivo; conditions: Colletotrichum orbiculare, 24 h, 1 Day Protectant, read-out: Disease Control COLLLA 1DP
Procedure: Technical grades of materials were dissolved in acetone, which were then mixed with nine volumes of water containing 110 ppm Triton X-100. The fungicide solutions were applied onto wheat seedlings using an automated booth sprayer to run-off. All sprayed plants were allowed to air dry prior to further handling. All fungicides were evaluated using the aforementioned method for their activity vs. all target diseases. Wheat leaf blotch and brown rust activity were also evaluated using track spray applications, in which case the fungicides were formulated as EC formulations, containing 0.1% Trycol 5941 in the spray solutions. Wheat plants (variety Yuma) were grown from seed in a greenhouse in 50% mineral soil/50% soil-less Metro mix until the first leaf was fully emerged, with 7-10 seedlings per pot. These plants were inoculated with an aqueous spore suspension of Septoria tritici either prior to or after fungicide treatments. After inoculation the plants were kept in 100% relative humidity (one day in a dark dew chamber followed by two to three days in a lighted dew chamber at 20° C.) to permit spores to germinate and infect the leaf. The plants were then transferred to a greenhouse set at 20° C. for disease to develop. When disease symptoms were fully expressed on the 1st leaves of untreated plants, infection levels were assessed on a scale of 0 to 100 percent disease severity. Percent disease control was calculated using the ratio of disease severity on treated plants relative to untreated plants. Evaluation of Fungicidal Activity: Cucumber Anthracnose (Glomerella lagenarium; Anamorph: Colletotrichum lagenarium; Bayer Code COLLLA) Cucumber seedlings (variety Bush Pickle) were propagated in soil-less Metro mix, with each pot having one plant, and used in the test when 12 to 14 days old. Test plants were inoculated with an aqueous spore suspension of Colletotrichum lagenarium 24 hr after fungicide treatments. After inoculation the plants were kept in a dew room at 22° C. with 100% relative humidity for 48 hr to permit spores to germinate and infect the leaf. The plants were then transferred to a growth room set at 22° C. for disease to develop. Fungicide formulation, application and disease assessment on the sprayed leaves followed the procedures as described in the Example A.

[3] = tested on: Blumeria graminis f.sp. hordei; assay: Barley Powdery Mildew fungicidal activity (ERYSGH); assay type: in vivo; conditions: 24 h, 1 Day Protectant, read-out: Disease Control ERYSGH 1DP
Procedure: Technical grades of materials were dissolved in acetone, which were then mixed with nine volumes of water containing 110 ppm Triton X-100. The fungicide solutions were applied onto wheat seedlings using an automated booth sprayer to run-off. All sprayed plants were allowed to air dry prior to further handling. All fungicides were evaluated using the aforementioned method for their activity vs. all target diseases. Wheat leaf blotch and brown rust activity were also evaluated using track spray applications, in which case the fungicides were formulated as EC formulations, containing 0.1% Trycol 5941 in the spray solutions. Wheat plants (variety Yuma) were grown from seed in a greenhouse in 50% mineral soil/50% soil-less Metro mix until the first leaf was fully emerged, with 7-10 seedlings per pot. These plants were inoculated with an aqueous spore suspension of Septoria tritici either prior to or after fungicide treatments. After inoculation the plants were kept in 100% relative humidity (one day in a dark dew chamber followed by two to three days in a lighted dew chamber at 20° C.) to permit spores to germinate and infect the leaf. The plants were then transferred to a greenhouse set at 20° C. for disease to develop. When disease symptoms were fully expressed on the 1st leaves of untreated plants, infection levels were assessed on a scale of 0 to 100 percent disease severity. Percent disease control was calculated using the ratio of disease severity on treated plants relative to untreated plants. Evaluation of Fungicidal Activity: Barley Powdery Mildew (Blumeria graminis fsp. hordei; Synonym: Erysiphe graminis fsp. hordei; Bayer Code […]) Barley seedlings (variety Harrington) were propagated in soil-less Metro mix, with each pot having 8 to 12 plants, and used in the test when first leaf was fully emerged. Test plants were inoculated by dusting with infected stock plants 24 hr after fungicide treatments. After inoculation the plants were kept in a greenhouse set at 20° C. for disease to develop. Fungicide formulation, application and disease assessment on the sprayed leaves followed the procedures as described in the Example A.

[4] = tested on: Phakopsora pachyrhizi; assay: Asian Soybean Rust fungicidal activity (PHAKPA); assay type: in vivo; conditions: 25 ppm; for Disease Control PHAKPA 1DP: 1 Day Protectant; for Disease Control PHAKPA 3DC: 3 Day Curative
Procedure: Evaluation of Fungicidal Activity: Asian Soybean Rust (Phakopsora pachyrhizi; Bayer Code PHAKPA)
Technical grades of materials were dissolved in acetone, which were then mixed with nine volumes of water containing 0.011% Tween 20. The fungicide solutions were applied onto soybean seedlings using an automated booth sprayer to run-off. All sprayed plants were allowed to air dry prior to further handling.
Soybean plants (variety Williams 82) were grown in soil-less Metro mix, with one plant per pot. Two weeks old seedlings were used for testing. Plants were inoculated either 3 days prior to or 1 day after fungicide treatments. Plants were incubated for 24 h in a dark dew room at 22° C. and 100% RH then transferred to a growth room at 23° C. for disease to develop. Disease severity was assessed on the sprayed leaves.

[5] = tested on: Blumeria graminis f. sp. tritici; assay: Wheat Powdery Mildew fungicidal activity (ERYSGT); assay type: in vivo; conditions: 100 ppm, 1 Day Protectant
Procedure: Technical grades of materials were dissolved in acetone, which were then mixed with nine volumes of water containing 110 ppm Triton X-100. The fungicide solutions were applied onto wheat seedlings using an automated booth sprayer to run-off. All sprayed plants were allowed to air dry prior to further handling. All fungicides were evaluated using the aforementioned method for their activity vs. all target diseases. Wheat leaf blotch and brown rust activity were also evaluated using track spray applications, in which case the fungicides were formulated as EC formulations, containing 0.1% Trycol 5941 in the spray solutions. Wheat plants (variety Yuma) were grown from seed in a greenhouse in 50% mineral soil/50% soil-less Metro mix until the first leaf was fully emerged, with 7-10 seedlings per pot. These plants were inoculated with an aqueous spore suspension of Septoria tritici either prior to or after fungicide treatments. After inoculation the plants were kept in 100% relative humidity (one day in a dark dew chamber followed by two to three days in a lighted dew chamber at 20° C.) to permit spores to germinate and infect the leaf. The plants were then transferred to a greenhouse set at 20° C. for disease to develop. When disease symptoms were fully expressed on the 1st leaves of untreated plants, infection levels were assessed on a scale of 0 to 100 percent disease severity. Percent disease control was calculated using the ratio of disease severity on treated plants relative to untreated plants. Evaluation of Fungicidal Activity: Wheat Powdery Mildew (Blumeria graminis f. sp. tritici; Synonym: Erysiphe graminis f. sp. tritici; Bayer Code […]) Wheat plants (variety Yuma) were grown from seed in a greenhouse in 50% mineral soil/50% soil-less Metro mix until the first leaf was fully emerged, with 7-10 seedlings per pot. These plants were inoculated by dusting with infected stock plants 24 hr after fungicide treatments. After inoculation the plants were kept in a greenhouse set at 20° C. for disease to develop. […]

Row | SMILES | melting point [°C] | pest or weed control at 100 ppm [1] [%] | pest or weed control at 100 ppm [2] [%] | pest or weed control at 100 ppm [3] [%] | Disease Control PHAKPA 1DP [4] | Disease Control PHAKPA 3DC [4] | Disease Control ERYSGT 1DP [5]
1 | COc1ccnc(C(=O)N[C@H]2COC[C@H](Cc3cccc4ccccc34)[C@@H](OC(=O)C(C)C)[C@H](C)OC2=O)c1OCOC(C)=O [Compound F83, (3S,6S,7R,8S)-3-(3-(acetoxymethoxy)-4-methoxypicolin-amido)-6-methyl-8-(naphthalen-1-ylmethyl)-4-oxo-1,5-dioxonan-7-yl isobutyrate] | 58 to 64 | 80 to 100 | 80 to 100 | 80 to 100 | – | – | –
2 | COc1ccnc(C(=O)N[C@H]2COC[C@H](Cc3ccc(Cl)cc3Cl)[C@@H](OC(=O)C(C)C)[C@H](C)OC2=O)c1OC(C)=O [Compound F73] | 93 to 97 | 80 to 100 | 80 to 100 | – | – | – | –
3 | COc1ccnc(C(=O)N[C@H]2COC[C@H](CC3CCCC3)[C@@H](OC(=O)C(C)C)[C@H](C)OC2=O)c1OCOC(C)=O [Compound F114] | 41 to 45 | 80 to 100 | 80 to 100 | 80 to 100 | A (80-100) | B (More than 0-Less than 80) | –
4 | COc1ccnc(C(=O)N[C@H]2COC[C@H](Cc3ccc(C)cc3)[C@@H](OCC(C)C)[C@H](C)OC2=O)c1OCOC(C)=O [Compound F117] | – | 80 to 100 | 80 to 100 | 80 to 100 | – | – | A (80-100)
5 | COc1ccnc(C(=O)N[C@H]2COC[C@H](CCc3ccccc3)[C@@H](OCC(C)C)[C@H](C)OC2=O)c1OCOC(C)=O [Compound F82] | – | 80 to 100 | 80 to 100 | – | – | – | –
6 | CCCCCO[C@@H]1[C@@H](Cc2ccc(Cl)cc2Cl)COC[C@H](NC(=O)c2nccc(OC)c2OCOC(=O)COCC)C(=O)O[C@H]1C [Compound F122] | – | – | 80 to 100 | 80 to 100 | B (More than 0-Less than 80) | – | –
7 | COc1ccnc(C(=O)N[C@H]2COC[C@H](CC(F)(F)F)[C@@H](OC3CCCC3)[C@H](C)OC2=O)c1OCOC(C)=O [Compound F105] | – | 80 to 100 | 80 to 100 | – | – | – | –
8 | COc1ccnc(C(=O)N[C@H]2COC[C@H](CCC(C)C)[C@@H](OC(=O)C3CC3)[C@H](C)OC2=O)c1OCOC(C)=O [Compound F108] | – | 80 to 100 | – | 80 to 100 | A (80-100) | A (80-100) | –
9 | COc1ccnc(C(=O)N[C@H]2COC[C@H](Cc3ccc(C)cc3)[C@@H](OCC(C)C)[C@H](C)OC2=O)c1OC(C)=O [Compound F80] | – | 80 to 100 | 80 to 100 | 80 to 100 | – | – | A (80-100)
10 | COc1ccnc(C(=O)N[C@H]2COC[C@H](Cc3ccc(Cl)cc3Cl)[C@@H](OC(=O)C(C)C)[C@H](C)OC2=O)c1OCOC(C)=O [Compound F110] | 62 to 66 | 80 to 100 | 80 to 100 | – | – | – | –
11 | CCCCCO[C@@H]1[C@@H](Cc2ccc(Cl)cc2Cl)COC[C@H](NC(=O)c2nccc(OC)c2OC(=O)CCOC)C(=O)O[C@H]1C [Compound F123] | 96 to 99 | – | 80 to 100 | 80 to 100 | B (More than 0-Less than 80) | – | –
12 | COc1ccnc(C(=O)N[C@H]2COC[C@H](CCC(C)C)[C@@H](OCCCC(F)(F)F)[C@H](C)OC2=O)c1OCOC(C)=O [Compound F107] | – | 80 to 100 | – | 0 to 80 | A (80-100) | B (More than 0-Less than 80) | –
13 | COc1ccnc(C(=O)N[C@H]2COC[C@H](Cc3ccc(F)cc3)[C@@H](OCC(C)C)[C@H](C)OC2=O)c1OCOC(C)=O [Compound F96] | – | 80 to 100 | 80 to 100 | 80 to 100 | – | – | A (80-100)
